Tests used:
Assay in all cases: Field trial, post-emergence foliar weed control
Type in all cases: in vivo
[1] = system: broomweed (Sida acuta, SIDAC)
From the text: (§1) The (a) aminocyclopyrachlor or an agriculturally acceptable salt or ester thereof is mixed with or applied in combination with (b) triclopyr or an agriculturally acceptable salt or ester thereof in an amount sufficient to induce a synergistic herbicidal effect. […] As described in the Herbicide Handbook of the Weed Science Society of America, Ninth Edition, 2007, p. 429, “‘synergism’ [is] an interaction of two or more factors such that the effect when combined is greater than the predicted effect based on the response to each factor applied separately.” Synergistic in the herbicide context can mean that the use of (a) and (b) as defined above results in an increased weed control effect compared to the weed control effects that are possible with the use of (a) or (b) alone. In some embodiments, the damage or injury to the undesired vegetation caused by the compositions and methods disclosed herein is evaluated using a scale from 0% to 100%, when compared with the untreated control vegetation, wherein 0% indicates no damage to the undesired vegetation and 100% indicates complete destruction of the undesired vegetation. […] 22 (1967)
(§2) Field trials were conducted with applications made to established grassland with naturally occurring weed populations, or applications were made to bare ground with naturally occurring weed populations. The target plants were treated with post emergence foliar applications after they had reached at least 3-4 leaves or at least 2-5 inches in height. All treatments were applied using a randomized complete block trial design, with 3-4 replications per treatment.
(§3) Treatments consisted of aminocyclopyrachlor in acid form and triclopyr-butotyl, each in water and applied alone or in combination. Spray solutions were prepared using an appropriate amount of dilution to form a 2 liter (L) aqueous spray solution with active ingredients in single and two way combinations. Formulated compounds were applied to the plant material with a backpack sprayer equipped with 8003 or Turbojet nozzles calibrated to deliver 187 L/ha to 400 L/ha at a spray height of 18-20 inches (43-50 centimeters (cm)) above average plant canopy.
(§4) The treated plants were buckhorn plantain (Plantago lanceolata, PLALA), calvary clover (Medicago arabica, MEDAB), shepherd's purse (Capsella bursa-pastoris, CAPBP), common fiddleneck (Amsinckia intermedia, AMSIN), redmaids (Calandrinia ciliata, CLNCM), and broomweed (Sida acuta, SIDAC). The treated plots and control plots were rated blind at various intervals after application. Ratings were based on a scale of 0-100%, as discussed above, wherein 0% indicates no damage to the undesired vegetation and 100% indicates complete destruction of the undesired vegetation
(§5) Colby's equation was used to determine the herbicidal effects expected from the mixtures, as described above. The results were measured at 7 days, 14 days, 17 days, 24 days, 27 days, 60 days, and 72 days after the first application of the compositions. […] The herbicide tank mix combinations tested, application rates and ratios employed, plant species tested, and results are given below.

[2] = system: buckhorn plantain (Plantago lanceolata, PLALA)
From the text: as §1, §2, §3, §4, §5

[3] = system: calvary clover (Medicago arabica, MEDAB)
From the text: as §1, §2, §3, §4, §5

[4] = system: common fiddleneck (Amsinckia intermedia, AMSIN)
From the text: as §1, §2, §3, §4, §5

[5] = system: redmaids (Calandrinia ciliata, CLNCM); conditions: 17 DAYS
From the text: as §1, §2, §3, §4, §5

[6] = system: shepherd's purse (Capsella bursa-pastoris, CAPBP)
From the text: as §1, §2, §3, §4, §5

Nc1nc(C2CC2)nc(C(=O)O)c1Cl [Aminocyclopyrachlor, 6-amino-5-chloro-2-cyclopropylpyrimidine-4-carboxylic acid]
Mean % weed control ([1]; 60 DAYS, 150 g ae/ha alone): 53% | Mean % weed control ([1]; 72 DAYS, 150 g ae/ha alone): 60% | Mean % weed control ([2]; 14 DAYS, 18 g ae/ha alone): 37.5% | Mean % weed control ([2]; 14 DAYS, 35 g ae/ha alone): 40% | Mean % weed control ([2]; 27 DAYS, 18 g ae/ha alone): 22.5% | Mean % weed control ([2]; 27 DAYS, 35 g ae/ha alone (aminocyclopyrachlor)): 35% | Mean % weed control ([3]; 7 DAYS, 18 g ae/ha alone): 20% | Mean % weed control ([3]; 14 DAYS, 18 g ae/ha alone): 47.5% | Mean % weed control ([3]; 14 DAYS, 35 g ae/ha alone): 47.5% | Mean % weed control ([3]; 27 DAYS, 18 g ae/ha alone): 27.5% | Mean % weed control ([4]; 17 DAYS, 35 g ae/ha alone): 0% | Mean % weed control ([4]; 24 DAYS, 35 g ae/ha alone): 0% | Mean % weed control ([5]; 35 g ae/ha alone): 16.67% | Mean % weed control ([6]; 17 DAYS, 18 g ae/ha alone): 23.33% | Mean % weed control ([6]; 24 DAYS, 18 g ae/ha alone): 20%

CCCCOCCOC(=O)COc1nc(Cl)c(Cl)cc1Cl [Triclopyr-butotyl]
Mean % weed control ([1]; 60 DAYS, 360 g ae/ha alone): 2% | Mean % weed control ([1]; 72 DAYS, 360 g ae/ha alone): 10% | Mean % weed control ([2]; 14 DAYS, 70 g ae/ha alone): 7.5% | Mean % weed control ([2]; 27 DAYS, 35 g ae/ha alone (triclopyr-butotyl)): 2.5% | Mean % weed control ([2]; 27 DAYS, 70 g ae/ha alone): 3.75% | Mean % weed control ([3]; 7 DAYS, 70 g ae/ha alone): 13.75% | Mean % weed control ([3]; 14 DAYS, 70 g ae/ha alone): 10% | Mean % weed control ([3]; 27 DAYS, 35 g ae/ha alone): 2.5% | Mean % weed control ([3]; 27 DAYS, 70 g ae/ha alone): 5% | Mean % weed control ([4]; 17 DAYS, 70 g ae/ha alone): 0% | Mean % weed control ([4]; 24 DAYS, 70 g ae/ha alone): 0% | Mean % weed control ([5]; 70 g ae/ha alone): 20% | Mean % weed control ([5]; 140 g ae/ha alone): 23.33% | Mean % weed control ([6]; 17 DAYS, 35 g ae/ha alone): 40% | Mean % weed control ([6]; 17 DAYS, 70 g ae/ha alone): 46.67% | Mean % weed control ([6]; 24 DAYS, 35 g ae/ha alone): 40% | Mean % weed control ([6]; 24 DAYS, 70 g ae/ha alone): 58.33%

Source: patent publication US20140094365A1, “SYNERGISTIC WEED CONTROL FROM APPLICATIONS OF AMINOCYCLOPYRACHLOR AND TRICLOPYR” (Dow AgroSciences LLC, priority 2012, published 2014)
